Measurements from US6838580B2, “Opioid derivative” (Teikoku Seiyaku Co., Ltd., priority 2002, dated 2005).
Marks after values point to notes of the source that are not given here.

Legend:
SD Male rats = assay: Analgesic effect, Randoll-Seritto hind limb pressure method, intracerebroventricular administration; format: in vivo; details: rat, i.c.v.
Description: SD Male rats, weighing 110 to 130 g, were used. One group consisted of five rats. The analgesic effects were examined by a Randoll-Seritto method. […] The threshold was expressed in mm Hg. During the measurement, the upper limit of the pressure applied to a hind limb was 100 mm Hg in order to avoid damage of the tissues.
1) When performing intracerebroventricular administration (i.c.v.), a rat was fixed to a brain stereotactic fixing apparatus under slight ether anesthesia, the skin at a head was dissected, and an administration cannula was inserted into a place at a transverse of […] from a bregma position and a depth of 3.5 to 4.0 mm. The administration volume was 10 μl/animal. Observation of the analgesic action was performed before administration, and at 30 minutes, and 1, 2, 3, 4 and 5 hours after administration. Doses of both compounds were 0.1, 1 and 10 μg/animal. Separately, a group to which 5 mg/kg of naltrexone hydrochloride was administered subcutaneously immediately after compound of Ex.1 10 μg/animal i.c.v and a group to which 5 mg/kg of naltrexone hydrochloride was administered subcutaneously immediately after compound of Ex.4 10 μg/animal i.c.v. was made. In addition, as morphine hydrochloride at a dose of 3 μg/animal i.c.v. group was used as a positive control group and a physiological saline 10 μl/animal i.c.v. group as a control group was made, respectively.
In order to perform a significant difference test between respective administration groups and control groups, and between values at respective times before administration and after administration, a Dunnet multiple comparative test method was used. In the statistical processing for performing a significant difference test between morphine hydrochloride administration groups and control groups, Student t-test was used. For performing a significant difference test between values at respective times before administration and after administration in morphine hydrochloride administration groups, a Dunnet multiple comparative test method was used. A significant level was at 5 or lower % risk rate (two-tailed test).

μ-opioid receptor = molecular target: T1, μ-opioid receptor (Rattus norvegicus, UniProt P33535); assay: Competitive receptor binding assay, synaptic membrane fraction, [3H]DAGO; details: for Ki: rat brain synaptic membrane, [3H]DAGO, read-out: Affinity of receptor (Ki, nM) μ; for Selectivity δ/μ: ratio Ki δ / Ki μ
T1 construct: synaptic membrane fraction obtained from the rat brain tissue; from tissue; host or cells: Sprague-Dawley rat brain without cerebellum, synaptic membrane (P2) fraction
Procedure: Regarding the opioid peptide derivatives synthesized in Examples and Reference Examples, the μ- and δ-opioid receptor affinities were obtained by a competitive receptor assay using the synaptic membrane fraction obtained from the rat brain tissue according to the known methods. That is, Sprague-Dawley rats having an average weight of 150-180 g were killed by decapitation, the brain tissue from which cerebellum had been removed was homogenized in 0.32M sucrose and 1 mM HEPES (pH 7.5) containing 50 μg/ml soybean trypsin inhibitor, fractionated and centrifuged to obtain the synaptic membrane fraction (P2 fraction), which was pre-incubated in 50 mM HEPES (pH 7.5) containing 100 mM NaCl, 0.1 mM GDP and soybean trypsin inhibitor to remove endogenous ligands from the P2 fraction.
A competitive receptor binding assay (Radiolabeled receptor assay: RRA) based on an exchange reaction between a radioactive ligand for the synaptic membrane fraction and a peptide derivative to be tested was performed by using tritium-labeled [^3H]DAGO which is a μ-opioid receptor agonist and tritium-labeled [^3H]DPDPE which has the high δ-opioid receptor selectivity, and incubating an aliquot of the synaptic membrane with the peptide derivative to be tested for a period of time. Upon this, an exchange reaction between a ligand was performed under constant conditions, the radiation remaining in the synaptic membrane fraction was measured, and an amount of the ligand adsorbed onto the synaptic membrane fraction is calculated. By assuming that binding with a receptor occurs in competition between a radioactive ligand and an end ligand, the concentration (IC50) at which the maximum specific binding of the radioactive ligand is 50% inhibited was obtained, from which the affinity constant (Ki) was calculated by a method of Cheng et al. (Biochem. Pharmcol., 22, 3099(1973)).

δ-opioid receptor = molecular target: T2, δ-opioid receptor (Mus musculus, UniProt P32300); assay: Mouse seminiferous tract (MVD) assay, inhibition of electrically stimulated constriction; format: cell-based; details: agonist activity, read-out: MVD (IC50 ± S.E.)
T2 construct: using mouse seminiferous tract in place of guinea pig ileum; from tissue; host or cells: mouse seminiferous tract (vas deferens, MVD), organ bath

[1] = 0.1 μg/animal, before administration
[2] = 1 μg/animal, before administration
[3] = 10 μg/animal + Naltrexon 5 mg/kg s.c., 0.5 hr
[4] = 10 μg/animal + Naltrexon 5 mg/kg s.c., 1 hr
[5] = 10 μg/animal + Naltrexon 5 mg/kg s.c., 2 hr
[6] = 10 μg/animal + Naltrexon 5 mg/kg s.c., 3 hr
[7] = 10 μg/animal + Naltrexon 5 mg/kg s.c., 4 hr
[8] = 10 μg/animal + Naltrexon 5 mg/kg s.c., 5 hr
[9] = 10 μg/animal + Naltrexon 5 mg/kg s.c., before administration
[10] = 10 μg/animal followed by naltrexone 5 mg/kg s.c.
[11] = 10 μg/animal, before administration

T1 sequence (P33535 whole entry): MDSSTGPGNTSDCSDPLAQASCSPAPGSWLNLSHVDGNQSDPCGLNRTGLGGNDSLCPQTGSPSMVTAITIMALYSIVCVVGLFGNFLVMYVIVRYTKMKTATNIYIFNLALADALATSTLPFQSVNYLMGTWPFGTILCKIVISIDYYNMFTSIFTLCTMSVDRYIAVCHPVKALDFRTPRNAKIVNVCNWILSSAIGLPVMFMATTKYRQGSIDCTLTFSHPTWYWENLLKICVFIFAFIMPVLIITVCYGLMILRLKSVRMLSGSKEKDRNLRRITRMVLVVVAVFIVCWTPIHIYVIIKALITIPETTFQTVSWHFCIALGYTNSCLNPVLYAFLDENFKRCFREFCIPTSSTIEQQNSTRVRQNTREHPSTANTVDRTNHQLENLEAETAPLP
T2 sequence (P32300 whole entry): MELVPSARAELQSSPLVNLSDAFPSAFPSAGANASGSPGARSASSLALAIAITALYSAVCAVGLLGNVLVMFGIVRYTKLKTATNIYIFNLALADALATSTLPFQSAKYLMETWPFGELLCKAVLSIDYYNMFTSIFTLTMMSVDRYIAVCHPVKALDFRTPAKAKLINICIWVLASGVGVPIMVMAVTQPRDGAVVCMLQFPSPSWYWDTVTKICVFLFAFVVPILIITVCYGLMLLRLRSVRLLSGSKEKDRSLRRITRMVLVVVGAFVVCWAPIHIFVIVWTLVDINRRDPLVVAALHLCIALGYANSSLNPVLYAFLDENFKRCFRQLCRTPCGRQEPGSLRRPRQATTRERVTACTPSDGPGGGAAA

Structure (SMILES)	Threshold (mmHg) (SD Male rats; 0.1 μg/animal, 0.5 hr)	Threshold (mmHg) (SD Male rats; 0.1 μg/animal, 1 hr)	Threshold (mmHg) (SD Male rats; 0.1 μg/animal, 2 hr)	Threshold (mmHg) (SD Male rats; 0.1 μg/animal, 3 hr)	Threshold (mmHg) (SD Male rats; 0.1 μg/animal, 4 hr)	Threshold (mmHg) (SD Male rats; 0.1 μg/animal, 5 hr)	Threshold (mmHg) (SD Male rats; [1])	Threshold (mmHg) (SD Male rats; 1 μg/animal, 0.5 hr)	Threshold (mmHg) (SD Male rats; 1 μg/animal, 1 hr)	Threshold (mmHg) (SD Male rats; 1 μg/animal, 2 hr)	Threshold (mmHg) (SD Male rats; 1 μg/animal, 3 hr)	Threshold (mmHg) (SD Male rats; 1 μg/animal, 4 hr)	Threshold (mmHg) (SD Male rats; 1 μg/animal, 5 hr)	Threshold (mmHg) (SD Male rats; [2])	Change in escape reaction threshold / analgesic effect, in words (SD Male rats; 10 μg/animal)	Threshold (mmHg) (SD Male rats; [3])	Threshold (mmHg) (SD Male rats; [4])	Threshold (mmHg) (SD Male rats; [5])	Threshold (mmHg) (SD Male rats; [6])	Threshold (mmHg) (SD Male rats; [7])	other results
Cc1cc(O)cc(C)c1C[C@H](N)C(=O)NCCCCCCNC(=O)[C@@H](N)Cc1c(C)cc(O)cc1C [Ex.4, 1,6-Bis(Dmt-amino)hexane.2HCl]	47 ± 2	47 ± 1	50 ± 2	49 ± 2	49 ± 2	47 ± 1	45 ± 2	51 ± 2	51 ± 2	51 ± 3	50 ± 2	53 ± 2*^,$ mmHg	52 ± 1*^,$ mmHg	46 ± 1	significant change in the threshold was not seen at any time after administration	55 ± 2*^,$ mmHg	52 ± 2*^,$ mmHg	51 ± 2	51 ± 1	52 ± 1*^,$ mmHg	Change in escape reaction threshold / analgesic effect, in words (SD Male rats; 1 μg/animal): significant increase in the threshold was seen 4 hours and 5 hours after administration; Threshold (mmHg) (SD Male rats; [8]): 50 ± 1 mmHg; Threshold (mmHg) (SD Male rats; [9]): 46 ± 1 mmHg; Change in escape reaction threshold / analgesic effect, in words (SD Male rats; [10]): significant increase in the threshold was seen 30 minutes, 1 hour and 4 hours after administration; Threshold (mmHg) (SD Male rats; 10 μg/animal, 0.5 hr): 50 ± 2 mmHg; Threshold (mmHg) (SD Male rats; 10 μg/animal, 1 hr): 47 ± 0 mmHg; Threshold (mmHg) (SD Male rats; 10 μg/animal, 2 hr): 49 ± 2 mmHg; Threshold (mmHg) (SD Male rats; 10 μg/animal, 3 hr): 48 ± 2 mmHg; Threshold (mmHg) (SD Male rats; 10 μg/animal, 4 hr): 48 ± 2 mmHg; Threshold (mmHg) (SD Male rats; 10 μg/animal, 5 hr): 49 ± 1 mmHg; Threshold (mmHg) (SD Male rats; [11]): 46 ± 1 mmHg; Ki (μ-opioid receptor): 0.053 ± 0.01 nM; Selectivity δ/μ (μ-opioid receptor): 870; IC50 (δ-opioid receptor): > 10 µM
Cc1cc(O)cc(C)c1C[C@H](N)C(=O)NCCCCNC(=O)[C@@H](N)Cc1c(C)cc(O)cc1C.Cl.Cl [Ex.1, 1,4-Bis-(Dmt-amino)butane.2HCl]	47 ± 1	50 ± 2	50 ± 1	48 ± 2	48 ± 1	49 ± 1	47 ± 1	51 ± 3	54 ± 3	49 ± 1	49 ± 2	48 ± 2 mmHg	47 ± 1 mmHg	47 ± 2	significant increase in the threshold was seen in the 10 μg/administration group 30 minutes and 1 hour after administration	49 ± 1 mmHg	53 ± 3 mmHg	54 ± 2	52 ± 2	49 ± 1 mmHg	Threshold (mmHg) (SD Male rats; [8]): 50 ± 1 mmHg; Threshold (mmHg) (SD Male rats; [9]): 47 ± 2 mmHg; Change in escape reaction threshold / analgesic effect, in words (SD Male rats; [10]): dissipated by naltrexone 5 mg/kg subcutaneous administration; Threshold (mmHg) (SD Male rats; 10 μg/animal, 0.5 hr): 61 ± 8*^,$ mmHg; Threshold (mmHg) (SD Male rats; 10 μg/animal, 1 hr): 61 ± 5**^,$ mmHg; Threshold (mmHg) (SD Male rats; 10 μg/animal, 2 hr): 54 ± 4 mmHg; Threshold (mmHg) (SD Male rats; 10 μg/animal, 3 hr): 51 ± 3 mmHg; Threshold (mmHg) (SD Male rats; 10 μg/animal, 4 hr): 52 ± 2 mmHg; Threshold (mmHg) (SD Male rats; 10 μg/animal, 5 hr): 52 ± 1 mmHg; Threshold (mmHg) (SD Male rats; [11]): 48 ± 2 mmHg; Ki (μ-opioid receptor): 0.041 ± 0.003 nM; Selectivity δ/μ (μ-opioid receptor): 1300; IC50 (δ-opioid receptor): > 10 µM
